We go through 12 molecules from patent US20220017486A1, “DOCK1-INHIBITING COMPOUND AND USE THEREOF” (KYUSHU UNIVERSITY, NATIONAL UNIVERSITY CORPORATION, priority 2018, published 2022).

SMILES strings stand for the structures.

For the first assay, the target named is T1, DOCK1 (DHR-2 domain) (Homo sapiens, UniProt Q14185).
T1 construct: polypeptide fragments corresponding to the DHR-2 domain of DOCK1 or DOCK2 from mice and humans; Histidine-SUMO (N); made in house; host or cells: E. coli Arctic express (DE3)
T1 sequence (Q14185 1207-1617 limits assumed): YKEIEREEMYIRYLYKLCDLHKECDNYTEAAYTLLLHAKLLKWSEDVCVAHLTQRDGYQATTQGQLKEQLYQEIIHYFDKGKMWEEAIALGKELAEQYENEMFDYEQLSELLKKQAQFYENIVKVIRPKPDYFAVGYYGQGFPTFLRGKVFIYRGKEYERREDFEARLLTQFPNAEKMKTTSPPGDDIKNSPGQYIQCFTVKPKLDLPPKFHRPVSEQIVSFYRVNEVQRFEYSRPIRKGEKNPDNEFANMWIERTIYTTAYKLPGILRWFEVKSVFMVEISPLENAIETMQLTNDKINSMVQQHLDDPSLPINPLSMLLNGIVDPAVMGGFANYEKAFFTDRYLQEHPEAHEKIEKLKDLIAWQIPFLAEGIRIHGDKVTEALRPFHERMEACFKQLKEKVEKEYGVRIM
Briefly: In vitro GEF assay: Rac activation by DOCK1 DHR-2 domain. The note with it: in words, GEF assay. It is filed as biochemical, mice and humans. On the procedure:
DOCK1 and DOCK2, i.e., DOCK-A subfamily members, both activate Rac by catalyzing the GTP-GDP exchange reaction for Rac via their DHR-2 domains. Therefore, in this Pharmacological Test, the inhibitory effect of the compounds of the present invention on Rac activation by DOCK1 or DOCK2 was assessed in an in vitro GEF assay by using polypeptide fragments corresponding to the DHR-2 domain of DOCK1 or DOCK2 from mice and humans. The in vitro GEF assay was performed using a labeled GTP (Bodipy-FL-GTP, Invitrogen), which has a property of increasing the fluorescence intensity when bound to Rac.
The polypeptide fragments corresponding to the DHR-2 domain of DOCK1 or DOCK2 were prepared by expression in E. coli Arctic express (DE3) cells as N-terminal. Histidine-SUMO tag-fused recombinant proteins, followed by purification by affinity column chromatography on nickel-NTA columns.
Rac was prepared by expression in E. coli BL21 (DE3) cells as an N-terminal GST tag-fused recombinant protein, followed by purification by affinity column chromatography on glutathione-Sepharose columns.
Each of the polypeptide fragments corresponding to the DHR-2 domain of DOCK1 or DOCK2, and a predetermined concentration of each test compound (the compounds of the present invention: 33 types of compounds; and comparative compound: TBOPP) dissolved in DMSO were incubated in a reaction solution A (pH 7.0), which contained 20 mM of MES-NaOH, 150 mM of NaCl, 10 mM of MgCl2, and 20 μM of GDP for 20 minutes at room temperature while being shielded from light to thus prepare GEF pretreated products. The final concentration of DMSO was adjusted to 1 mass % in all of the test samples. For a control test, a GEF pretreated product (control) was prepared by incubation in the same manner using DMSO with no test compounds, instead of the DMSO used above in which each test compound was dissolved.
Separately, Rac was added to the reaction solution A (pH 7.0) to a concentration of 15 μM, and was allowed to stand on for 30 min to form a GDP-Rac complex. Bodipy-FL-GTP was added to a concentration of 3.6 μM to 100 μL of the reaction solution A that contained the thus-prepared GDP-Rac complex, and equilibrated at 30° C. for 2 minutes. After equilibration, 50 μL of the GEF pretreated product prepared as described above was added and reacted at 30° C.
Changes in fluorescence intensity of Bodipy-FL-GTP in the reaction solutions were monitored using an EnSpire spectrofluorometer (Perkin Elmer) (excitation wavelength: 488 nm, fluorescence wavelength: 514 nm). The measured values were corrected so that the fluorescence intensity at the beginning of the reaction (0 sec) was 0. Then, an approximate curve (hyperbola) was obtained by plotting the calculated correction values on the y-axis and the time (t) on the x-axis using GraphPad Prism5 (GraphPad software), and the slope at t=0 to 10 seconds was defined as the initial velocity of the guanine nucleotide exchange reaction. The IC50 value was calculated taking the initial reaction velocity of the control, to which only a solvent (DMSO) was added, as 100%.
Based on the obtained results, columns A and B of FIG. 1, FIG. 2, FIG. 3-1, and FIG. 3-2 show the results evaluating the inhibitory effect on Rac activation by DOCK1 (DHR-2 domain) (IC50 value), and DOCK1-selective inhibitory effect (DOCK1/DOCK2 selectivity) of each test compound. The inhibitory effect on Rac activation by DOCK1 (DHR-2 domain) (IC50 value) was determined from the reaction inhibition curve plotted using values of Rac activation by the DOCK1 DHR-2 domain in the presence of various concentrations of the test compounds, taking the values of the control as 100%. […]
Take `O=S(=O)(c1cc(CO)n(CC(O)c2ccc(-c3cccc(C(F)(F)F)c3)cc2)c1)N1CCCC1` (stereo not drawn) [HS-14, 2-(2-(hydroxymethyl)-4-(pyrrolidin-1-yl-sulfonyl)-1H-pyrrol-1-yl)-1-(3′-(trifluoromethyl)-[1,1′-biphenyl]-4-yl)ethan-1-ol]: the “DOCK1-inhibiting activity compared with TBOPP” value is on record as “slightly lower DOCK1-inhibiting activity” and the “selective inhibitory activity against DOCK1 compared to TBOPP” value is on record as “higher selective inhibitory activity against DOCK1”.
In the same order, the values of `O=c1ccc(S(=O)(=O)N2CCCC2)cn1CC(O)c1ccc(-c2cccc(C(F)(F)F)c2)cc1O` (stereo not drawn) [AK-16, 1-(2-hydroxy-2-(3-hydroxy-3′-(trifluoromethyl)-[1,1′-biphenyl]-4-yl)ethyl)-5-(pyrrolidin-1-yl-sulfonyl)pyridin-2(1H)-one] are “slightly lower DOCK1-inhibiting activity” and “higher selective inhibitory activity against DOCK1”.

The assay is the same for the next values; noted with them: in words, GEF assay DOCK1 vs DOCK2 DHR-2 domain.
In the case of `CCCCCCOc1cc(-c2cccc(C(F)(F)F)c2)ccc1C(=O)C(CCCCCC)n1cc(S(=O)(=O)N2CCCC2)ccc1=O` (stereo not drawn) [AK-23, 1-(1-(3-(hexyloxy)-3′-(trifluoromethyl)-[1,1′-biphenyl]-4-yl)-1-oxooctan-2-yl)-5-(pyrrolidin-1-yl-sulfonyl)pyridin-2(1H)-one], the “selective inhibitory activity against DOCK1 versus DOCK2” value is reported as “higher selective inhibitory activity against DOCK1 than against DOCK2”.
The same measure, in the same setting: the value for `CN(C)C(=O)c1cc(S(=O)(=O)N2CCCC2)cn1CC(=O)c1ccc(-c2cccc(C(F)(F)F)c2)cc1` [RT-23, N,N-dimethyl-1-(2-oxo-2-(3′-(trifluoromethyl)-[1,1′-biphenyl]-4-yl)ethyl)-4-(pyrrolidin-1-yl-sulfonyl)-1H-pyrrole-2-carboxamide] was “higher selective inhibitory activity against DOCK1 than against DOCK2”.
For the molecule `O=C(Cn1cc(S(=O)(=O)N2CCC(c3ccc(-c4c5ccccc5cc5ccccc45)cc3)CC2)ccc1=O)c1ccc(-c2cccc(C(F)(F)F)c2)cc1` [KS-47, 5-((4-(4-(anthracen-9-yl)phenyl)piperidin-1-yl)sulfonyl)-1-(2-oxo-2-(3′-(trifluoromethyl)-[1,1′-biphenyl]-4-yl)ethyl)pyridin-2(1H)-one], the “selective inhibitory activity against DOCK1 versus DOCK2” value is listed as “higher selective inhibitory activity against DOCK1 than against DOCK2”.
With `O=C(Cn1cc(S(=O)(=O)N2CCCC2)ccc1=O)c1ccc(-c2cccc(C(F)(F)F)c2)cc1O` [AK-15, 1-(2-(3-hydroxy-3′-(trifluoromethyl)-[1,1′-biphenyl]-4-yl)-2-oxoethyl)-5-(pyrrolidin-1-yl-sulfonyl)pyridin-2(1H)-one], the “selective inhibitory activity against DOCK1 versus DOCK2” value is recorded as “higher selective inhibitory activity against DOCK1 than against DOCK2”.
The same measure, in the same setting: with `O=S(=O)(c1cc(CO)n(CC(O)c2ccc(-c3cccc(C(F)(F)F)c3)cc2)c1)N1CCCC1` (stereo not drawn) [HS-14, 2-(2-(hydroxymethyl)-4-(pyrrolidin-1-yl-sulfonyl)-1H-pyrrol-1-yl)-1-(3′-(trifluoromethyl)-[1,1′-biphenyl]-4-yl)ethan-1-ol] the entry was “higher selective inhibitory activity against DOCK1 than against DOCK2”; with `CC1(C)Oc2cc(-c3cccc(C(F)(F)F)c3)ccc2C(Cn2cc(S(=O)(=O)N3CCCC3)ccc2=O)O1` (stereo not drawn) [AK-17, 1-((2,2-dimethyl-7-(3-(trifluoromethyl)phenyl)-4H-benzo[d][1,3]dioxin-4-yl)methyl)-5-(pyrrolidin-1-yl-sulfonyl)pyridin-2(1H)-one], “higher selective inhibitory activity against DOCK1 than against DOCK2”; with `CC(=O)Oc1cc(-c2ccc(-c3cccc(C(F)(F)F)c3)cc2)cn2cc(S(=O)(=O)N3CCCC3)cc12` [HS-20, 2-(pyrrolidin-1-yl-sulfonyl)-6-(3′-(trifluoromethyl)-[1,1′-biphenyl]-4-yl)-indolizin-8-yl acetate], “higher selective inhibitory activity against DOCK1 than against DOCK2”.
The same measure, in the same setting: the value for `O=C(Cn1cc(S(=O)(=O)N2CCC(c3ccc(-c4ccccc4)cc3)CC2)ccc1=O)c1ccc(-c2cccc(C(F)(F)F)c2)cc1` [KS-43, 5-((4-([1,1′-biphenyl]-4-yl)piperidin-1-yl)sulfonyl)-1-(2-oxo-2-(3′-(trifluoromethyl)-[1,1′-biphenyl]-4-yl)ethyl)pyridin-2(1H)-one] was “higher selective inhibitory activity against DOCK1 than against DOCK2”; that for `O=C(Cn1cc(S(=O)(=O)N2CCCC2)ccc1=O)c1ccc(-c2cccc(C(F)(F)F)c2)cc1OCCc1ccccc1` [AK-24, 1-(2-oxo-2-(3-phenethoxy-3′-(trifluoromethyl)-[1,1′-biphenyl]-4-yl)ethyl)-5-(pyrrolidin-1-yl-sulfonyl)pyridin-2(1H)-one] was “higher selective inhibitory activity against DOCK1 than against DOCK2”; that for `O=C(Cn1cc(S(=O)(=O)N2CCC(c3ccc(-c4ccc5c(c4)Cc4ccccc4-5)cc3)CC2)ccc1=O)c1ccc(-c2cccc(C(F)(F)F)c2)cc1` [KS-46, 5-((4-(4-(9H-fluoren-2-yl)phenyl)piperidin-1-yl)sulfonyl)-1-(2-oxo-2-(3′-(trifluoromethyl)-[1,1′-biphenyl]-4-yl)ethyl)pyridin-2(1H)-one] was “higher selective inhibitory activity against DOCK1 than against DOCK2”.

For the next assay, the system named is mouse lung carcinoma cell line (3LL cells). Briefly: Cell invasion inhibition assay (Matrigel invasion chamber). The note with it: in words. It is filed as cell-based. As to the method: In this Pharmacological Test, the inhibitory effect of each test compound on cell invasion response was evaluated using a mouse lung carcinoma cell line (3LL cells), a mouse pancreatic cancer cell line (PANC02 cells), and a human breast cancer cell line (MDA-MB-157 cells). Of these, the mouse lung carcinoma cell line (3LL) is a cancer cell line with mutant Ras (K-Ras (G12C)), and the human breast cancer cell line (MDA-MB-157) is a cancer cell line with mutant Rac (Rac1 (P29S)). The experiments were performed in BD BioCoat Matrigel invasion chambers (BD Biosciences).
Specifically, an upper chamber with a Matrigel-coated membrane insert (8 μm pores) at the bottom was equilibrated with DMEM (serum-free medium) for 120 minutes. Thereafter, 300 μL of a suspension of a cancer cell line in DMEM (serum-free) was placed in the upper chamber while 500 μL of DMEM (with 10 mass % FCS) was placed in the lower chamber. Each test compound dissolved in DMSO at a predetermined concentration was added to both the culture media in the upper and lower chambers. As a control, DMSO alone was added to both the culture media in the upper and lower chambers. In all of the experiments, the final DMSO concentration in the culture media was adjusted to 0.2 mass %.
The resulting products were cultured under 5% CO2 at 37° C. for 22 hours (3LL and PANC02 cells) or 48 hours (MDA-MB-157 cells). Then, the upper chamber was removed, and the culture medium was removed. Thereafter, non-invading cells remaining in the upper chamber were removed using a cotton swab, and the cells remaining outside the bottom of the upper chamber (cells that had invaded into the Matrigel, and passed through the membrane insert) were stained with Diff-Quick (Sysmex). After staining, the membrane inserts with Matrigel were cut out using a scalpel to prepare slides, and the number of invading cells was counted under an optical microscope.
The results were evaluated based on percent cell invasion (%: Invasion) and percent inhibition (%: Inhibition). The percent cell invasion was obtained by converting the number of invading cells in the presence of each test compound into a percentage, taking the number of invading cells in the control test, in which DMSO was added alone, as 100%; and the percent inhibition was obtained by deducting the percent cell invasion from 100.
For `O=C(Cn1cc(S(=O)(=O)N2CCCC2)ccc1=O)c1ccc(-c2ccc3cccnc3c2)cc1` [KS-18, 1-(2-oxo-2-(4-(quinolin-7-yl)phenyl)ethyl)-5-(pyrrolidin-1-yl-sulfonyl)pyridin-2(1H)-one], the “percent cell invasion inhibition compared with TBOPP” value is “higher percent cell invasion inhibition than TBOPP”.
